Patent publication US20120225909A1, “INDAZOLE ANALOG” (priority 2009, published 2012)
Where two headings read alike, the source gives them in different places.

Experiments:
[1] = system: Male C57BL/6 Cr mice; test: Test Case 10: mouse piloerection test; assay type: in vivo; settings: 10 mg/kg i.v.
[2] = target: T1, human β1-adrenergic receptor (Homo sapiens, UniProt P08588); test: Test Case 2-B: human β1-adrenergic receptor agonist activity; assay type: cell-based; settings: read-out: β1 receptor I.A.
T1 construct: expressed in transfected cells; host or cells: CHO (Chinese hamster ovary) cells, pcDNA3
Protocol: Measurement of Human β1-Adrenergic Receptor Agonist Activity
The human β1-adrenergic receptor agonist activity is measured by the same method as in Test Case 1-B using CHO (Chinese hamster ovary) cells transfected by a human β1 gene inserted in pcDNA3 (Invitrogen).

[3] = target: T2, human β3-adrenergic receptor (Homo sapiens, UniProt P13945); test: Test Case 1-B: human β3-adrenergic receptor agonist activity (cAMP-Screen, 96-well); assay type: cell-based
T2 construct: A full-length human β3 gene is obtained from a human genomic library (made by Clontech) using this as the probe; expressed in transfected cells; host or cells: CHO (Chinese hamster ovary) cells, pcDNA3
Summary of the method: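 CHO cells stably transfected with full-length human β3 gene, serum-starved 15 min, then exposed to serially diluted compound in Ham's F-12 with 100 mmol/L HEPES and 1 mmol/L IBMX (diluent concentrations) for 30 min. Cells lysed 30 min at 37 °C; cAMP quantified by cAMP-Screen immunoassay.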

[4] = system: pentobarbital-anesthetized rats; test: Test Case 9: effects on the blood pressure and heart rate in pentobarbital-anesthetized rats; assay type: in vivo, rat; settings: anesthetized male SD rats; 3 mg/kg intravenous over 30 seconds; maximum change, mean±standard deviation
[5] = system: common marmoset isolated bladder smooth muscle; test: Test Case 7: common marmoset isolated bladder smooth muscle relaxation test; settings: KCl 40 mmol/L contracted marmoset bladder, papaverine 10^−4 mol/L relaxation = 100%
Protocol: Common Marmoset Isolated Bladder Smooth Muscle Relaxation Test
After sacrificing common marmosets (Japan CLEA) by exsanguination, they are laparotomized and the urinary bladder is removed. […] The specimens are loaded with one gram of resting tension and stabilized for 30 or more minutes. After the resting tension of the specimen has stabilized, a final concentration of 40 mmol/L of KCl is added repeatedly, and it is confirmed that the contraction in response to KCl has basically become constant. […] Taking that relaxation response as 100%, the relaxation rate (%) at test compound concentrations of […] is calculated.

[6] = 0.5 h; read-out: β3 receptor I.A.

T2 sequence (P13945 whole entry): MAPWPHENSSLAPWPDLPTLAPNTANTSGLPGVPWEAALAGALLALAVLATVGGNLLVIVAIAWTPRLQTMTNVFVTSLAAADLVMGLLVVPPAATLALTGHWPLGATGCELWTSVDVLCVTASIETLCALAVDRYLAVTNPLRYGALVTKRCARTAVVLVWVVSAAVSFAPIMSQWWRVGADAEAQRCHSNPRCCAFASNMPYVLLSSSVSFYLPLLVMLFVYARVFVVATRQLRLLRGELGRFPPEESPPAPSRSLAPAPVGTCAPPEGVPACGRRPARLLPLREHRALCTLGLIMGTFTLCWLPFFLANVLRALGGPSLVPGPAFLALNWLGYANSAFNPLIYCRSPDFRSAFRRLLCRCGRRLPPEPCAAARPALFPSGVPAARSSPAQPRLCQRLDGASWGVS
T1 sequence (P08588 whole entry): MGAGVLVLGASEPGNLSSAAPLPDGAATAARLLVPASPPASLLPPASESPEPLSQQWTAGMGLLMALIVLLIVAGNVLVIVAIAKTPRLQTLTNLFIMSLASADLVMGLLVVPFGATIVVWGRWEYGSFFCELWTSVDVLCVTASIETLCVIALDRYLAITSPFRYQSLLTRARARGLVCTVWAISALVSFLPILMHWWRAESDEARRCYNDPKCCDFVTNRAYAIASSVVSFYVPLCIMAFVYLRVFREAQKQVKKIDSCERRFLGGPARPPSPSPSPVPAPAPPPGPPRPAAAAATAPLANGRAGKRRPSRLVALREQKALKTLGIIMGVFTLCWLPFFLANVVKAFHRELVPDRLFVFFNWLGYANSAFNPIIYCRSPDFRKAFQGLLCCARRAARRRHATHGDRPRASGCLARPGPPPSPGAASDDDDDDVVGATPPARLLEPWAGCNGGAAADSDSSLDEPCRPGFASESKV

| SMILES | number of experimental animals matching Score 0 (no piloerection) ([1]; n=4, observation time 5 min) | number of experimental animals matching Score 0 (no piloerection) ([1]; n=4, observation time 15 min) | number of experimental animals matching Score 0.5 ([1]; n=4, observation time 15 min) | number of experimental animals matching Score 0 (no piloerection) ([1]; n=4, observation time 30 min) | number of experimental animals matching Score 0.5 ([1]; n=4, observation time 30 min) | number of experimental animals matching Score 0 (no piloerection) ([1]; n=4, observation time 60 min) | Emax [2] [%] | Emax ([3]; 0.5 h, read-out: β3 receptor I.A.) [%] | EC50 ([3]; Test Case 1-B; CHO cells, cAMP) [nM] | increase in MBP (%) [4] [%] | relaxant activity (%) 10^−4M [5] [%] | relaxant activity (%) 10^−5M [5] [%] | number of experimental animals matching Score 0.5 ([1]; n=4, observation time 60 min) | Emax [3, 6] [%] |
| --- | --- | --- | --- | --- | --- | --- | --- | --- | --- | --- | --- | --- | --- | --- |
| Cc1n[nH]c2cc(OCCNC[C@H](O)c3cccc(NS(=O)(=O)C4CCC4)c3)ccc12 [ex3, (R)—N-(3-(1-hydroxy-2-(2-(3-methylindazol-6-yloxy)ethylamino)ethyl)phenyl)cyclobutanesulfonamide] | 4 | 3 | 1 | 3 | 1 | 4 | 4 | 105 | 17 | 2.0 ± 1.6 | 63.2 | 36.6 |  |  |
| O=S(=O)(Nc1cccc([C@@H](O)CNCCOc2ccc3c(OC(F)F)n[nH]c3c2)c1)C1CC1 [ex4, (R)—N-(3-(2-(2-(3-(difluoromethoxy)-indazol-6-yloxy)ethylamino)-1-hydroxyethyl)phenyl)cyclopropanesulfonamide] | 4 | 4 |  | 3 | 1 | 3 | 2 |  | 38 | 2.4 ± 2.2 | 53.7 | 30.1 | 1 | 77 |
| Cc1n[nH]c2cc(OCCNC[C@H](O)c3cccc(NS(=O)(=O)c4ccccc4F)c3)ccc12 [ex235, (R)-2-fluoro-N-(3-(1-hydroxy-2-(2-(3-methylindazol-6-yloxy)ethylamino)ethyl)phenyl)benzenesulfonamide] | 4 | 4 |  | 4 |  | 4 | 16 |  | 28 | 3.4 ± 1.0 | 55.3 | 24.3 |  | 113 |
